Test results from US9480751B2, “Albumin binding probes and drug conjugates thereof” (priority 2011, dated 2016).

What was measured:
[1] = said to have; cited from earlier work
[2] = Hydrophobic chromatography (analytical HPLC, chromolite RP-18e) as estimate of overall lipophilicity; settings: chromolite R.P-18e column, mixture of 40 μg each, FIG. 3
Method: Analytical reverse phase-HPLC was performed using a pre-packed Chromolith™ Performance RP-18e column (4.6×100 mm, Merck, Darmstadt, Germany). The column was eluted with a binary gradient of 10-100% solution B over 10 min with a flow rate of 3 ml/min (solution A was 0.1% trifluoroacetic acid in H2O and solution B was 0.1% trifluoroacetic acid in acetonitrile:H2O; 3:1, v/v).
This approach of hydrophobic chromatography yields an estimate of the overall lipophilicity of peptide analogs (Shechter et al., 2010).

CD1-mice = test: Blood glucose levels in CD1 mice after a single administration; format: in vivo
Method: (§1) Each point is the arithmetic mean of n=6 mice±SE.
as §1
Blood glucose levels were determined at varying time points following administration of insulin, exendin-4, and their derivatives in blood aliquots taken from the tail vein. Glucose analyzer (Beckman Instruments Fullerton, Calif.) was used. Groups consisted of six mice each. Data are presented as means±SE.

[3] = background statement; cited from earlier work
[4] = single subcutaneous 0.25 nmole/mouse, CD1 mice

Substance: N^εB29-tetradecanoyl des(B30) insulin [insulin-detemir]
- Duration of action [1]: up to 24 hours
- Rt value, hydrophobic chromatography (estimate of overall lipophilicity) [2]: 9.107 min

Substance: exendin-4-CO—(CH2)15—SO3^−
- Blood glucose level 48 hrs after administration (last time point) (CD1-mice; intravenous 0.25 nmole/mouse): still low
- t1/2 value of glucose-lowering (CD1-mice; single intravenous 0.25 nmole/mouse, CD1 mice): 28 ± 2 h
- Glucose level reached after administration (CD1-mice; [4]): 70 ± 5 mg/dL
- Period over which glucose remained at low level (CD1-mice; [4]): ~24 h
- t1/2 value of glucose-lowering (CD1-mice; [4]): 32 ± 2 h
- Glucose level reached after administration (CD1-mice; single subcutaneous 0.25 nmole/mouse, CD1 mice, listed as HO3S—(CH2)15—CO-exendin-4): 70+5 mg/dl
- t1/2 of glucose reduction (CD1-mice; subcutaneous and intravenous administration, stated together): 28 to 32 h

Substance: insulin: Human (Zn^2+-free) insulin
- t1/2 in plasma [3]: 5 to 6 min
- t1/2 of glucose-lowering effect (CD1-mice; single subcutaneous 0.69 nmole/mouse, CD1 mice): 2 ± 0.2 h
- Rt value, hydrophobic chromatography (estimate of overall lipophilicity) [2]: 7.312 min
